Reference: patent publication US20120034165A1, “IMAGING THE CENTRAL NERVOUS SYSTEM WITH PURINERGIC P2X7 RECEPTOR BINDING AGENTS” (priority 2009, published 2012)

Molecular target: T1, P2X7 receptor (Homo sapiens, UniProt Q99572)
T1 construct: expressed in transfected cells; host or cells: HEK.293 cells, transient transfection with Lipofectamine LTX
T1 sequence (Q99572 1-595): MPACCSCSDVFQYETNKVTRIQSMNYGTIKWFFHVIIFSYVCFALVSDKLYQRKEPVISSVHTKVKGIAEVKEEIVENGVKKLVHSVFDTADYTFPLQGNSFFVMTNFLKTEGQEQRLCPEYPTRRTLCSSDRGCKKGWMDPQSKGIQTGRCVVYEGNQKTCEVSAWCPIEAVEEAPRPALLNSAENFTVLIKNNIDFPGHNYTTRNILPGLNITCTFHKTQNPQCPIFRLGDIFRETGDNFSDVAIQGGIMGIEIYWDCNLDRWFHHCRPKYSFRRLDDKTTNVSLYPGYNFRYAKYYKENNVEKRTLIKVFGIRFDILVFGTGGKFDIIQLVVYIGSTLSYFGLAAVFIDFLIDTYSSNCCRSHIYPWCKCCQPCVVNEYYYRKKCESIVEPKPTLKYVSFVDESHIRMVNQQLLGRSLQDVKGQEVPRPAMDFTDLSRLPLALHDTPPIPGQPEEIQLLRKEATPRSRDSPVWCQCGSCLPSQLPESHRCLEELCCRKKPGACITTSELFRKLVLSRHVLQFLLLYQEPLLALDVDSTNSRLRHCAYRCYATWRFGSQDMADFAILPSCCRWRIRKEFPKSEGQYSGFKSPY
Experiment: Pore-forming (Yo Pro-1 dye uptake) assay in P2X7 transfected HEK.293 cells, Bz-ATP agonist
Format: cell-based
Settings: Bz-ATP 30 μM, Yo Pro-1 1 μM, triplicate
Excerpt: A non-radioactive analogue of the Imaging Agent illustrated in Table I was screened in a P2X7 receptor functional assay. This assay is described in Example 3 and is based upon the ability of the P2X7 receptor to form a non-selective pore in P2X7 transfected HEK.293 cells upon activation with an agonist, thereby allowing dye to permeate the cells. The non selective P2X channel antagonist used as a reference inhibitor for the evaluation of the non-radioactive compound of the invention was pyridoxal-phosphate-6-azophenyl-2′,4′-disulfonate (PPADS), and the results of the assay are provided in Table I above.
The assay method used was based on the ability of the DNA binding dye, Yo Pro-1 (quinolinium, 4[3-methyl-2(3H)-benzoxazolylidene)methyl]-1-[3-(trimethyl-ammonio)propyl]-dioxide) to enter through the dilated or “large pore form” of the P2X7 receptor and to bind to intracellular DNA/RNA whereupon it increases fluorescence intensity. Yo Pro-1 was therefore used to quantify inhibition of P2X7 function. This assay was based on the methods published by Michel et al., (B.J. Pharmacol 1998; 125: 1194-1201).
Initially, HEK.293 cells were transiently transfected using LipofectamineTMLTX (Invitrogen) for 72 hrs with P2X7 cDNA. 48 hours prior to use the cells were seeded into poly-D-lysine coated 96-well black-walled, clear bottomed plates, at a density of 30,000 cells/well. Stock solutions of test compound were prepared at a concentration of 40 mM in 100% DMSO.
Following the 48 hour incubation the culture medium was removed from the transfected cells, the cells were washed once and placed in pre-warmed sucrose assay buffer (Sucrose: 280 mM, KCL 5 mM, CaCl2: 0.5 mM, glucose: 10 mM, HEPES: 10 mM, N-methyl-D-glucamine: 10 mM; pH7.4). […] The fluorescence was then read at 485 nm excitation and 530 nm emission.
The non-selective P2X channel antagonist pyrdoxalphosphate-6-azophenyl-2′4′-disulphonic acid (PPADS) was used as a reference inhibitor in the assay. […] For each compound data set, a percentage inhibition value was calculated based on the three assay points generated.

Row | Structure (SMILES) | % inhibition (test compound at 10 μM) [%] | % inhibition (test compound at 100 μM (so in the source)) [%]
1 | Oc1ccccc1CNc1ncnn1-c1cccc(Cl)c1Cl [imaging agent 1] | 77.0 | 68.0
2 | Cc1nc(N=Nc2ccc(S(=O)(=O)O)cc2S(=O)(=O)O)c(COP(=O)(O)O)c(C=O)c1O [PPADS, pyridoxal-phosphate-6-azophenyl-2′,4′-disulfonate, reference compound] | 70 | –
